Measured values taken from ChEMBL document CHEMBL4665642, “Anticancer profile of newly synthesized BRAF inhibitors possess 5-(pyrimidin-4-yl)imidazo[2,1-b]thiazole scaffold” (Bioorg Med Chem, 2019).

Experiments:
Format in all cases: functional
Settings in all cases: read-out: Activity
CAKI-1 = test: Cytotoxicity against human CAKI-1 cells assessed as cell viability at 10 uM incubated for 48 hrs by sulforhodamine B assay relative to control
SF-295 = test: Cytotoxicity against human SF-295 cells assessed as cell viability at 10 uM incubated for 48 hrs by sulforhodamine B assay relative to control
TK-10 = test: Cytotoxicity against human TK-10 cells assessed as cell viability at 10 uM incubated for 48 hrs by sulforhodamine B assay relative to control
DU-145 = test: Cytotoxicity against human DU-145 cells assessed as cell viability at 10 uM incubated for 48 hrs by sulforhodamine B assay relative to control
CCRF-CEM = test: Cytotoxicity against human CCRF-CEM cells assessed as cell viability at 10 uM incubated for 48 hrs by sulforhodamine B assay relative to control
HL-60(TB) = test: Cytotoxicity against human HL-60(TB) cells assessed as cell viability at 10 uM incubated for 48 hrs by sulforhodamine B assay relative to control
MDA-MB-231 = test: Cytotoxicity against human MDA-MB-231 cells assessed as cell viability at 10 uM incubated for 48 hrs by sulforhodamine B assay relative to control
786-0 = test: Cytotoxicity against human 786-0 cells assessed as cell viability at 10 uM incubated for 48 hrs by sulforhodamine B assay relative to control
ACHN = test: Cytotoxicity against human ACHN cells assessed as cell viability at 10 uM incubated for 48 hrs by sulforhodamine B assay relative to control
IGROV-1 = test: Cytotoxicity against human IGROV-1 cells assessed as cell viability at 10 uM incubated for 48 hrs by sulforhodamine B assay relative to control
MDA-MB-435 = test: Cytotoxicity against human MDA-MB-435 cells assessed as cell viability at 10 uM incubated for 48 hrs by sulforhodamine B assay relative to control
BT-549 = test: Cytotoxicity against human BT-549 cells assessed as cell viability at 10 uM incubated for 48 hrs by sulforhodamine B assay relative to control
NCI-H23 = test: Cytotoxicity against human NCI-H23 cells assessed as cell viability at 10 uM incubated for 48 hrs by sulforhodamine B assay relative to control
RPMI-8226 = test: Cytotoxicity against human RPMI-8226 cells assessed as cell viability at 10 uM incubated for 48 hrs by sulforhodamine B assay relative to control
OVCAR-3 = test: Cytotoxicity against human OVCAR-3 cells assessed as cell viability at 10 uM incubated for 48 hrs by sulforhodamine B assay relative to control
MDA-MB-468 = test: Cytotoxicity against human MDA-MB-468 cells assessed as cell viability at 10 uM incubated for 48 hrs by sulforhodamine B assay relative to control
SK-MEL-28 = test: Cytotoxicity against human SK-MEL-28 cells assessed as cell viability at 10 uM incubated for 48 hrs by sulforhodamine B assay relative to control
NCI-H322M = test: Cytotoxicity against human NCI-H322M cells assessed as cell viability at 10 uM incubated for 48 hrs by sulforhodamine B assay relative to control
HOP-92 = test: Cytotoxicity against human HOP-92 cells assessed as cell viability at 10 uM incubated for 48 hrs by sulforhodamine B assay relative to control
COLO 205 = test: Cytotoxicity against human COLO 205 cells assessed as cell viability at 10 uM incubated for 48 hrs by sulforhodamine B assay relative to control
KM12 = test: Cytotoxicity against human KM12 cells assessed as cell viability at 10 uM incubated for 48 hrs by sulforhodamine B assay relative to control
HCT-15 = test: Cytotoxicity against human HCT-15 cells assessed as cell viability at 10 uM incubated for 48 hrs by sulforhodamine B assay relative to control
SK-OV-3 = test: Cytotoxicity against human SK-OV-3 cells assessed as cell viability at 10 uM incubated for 48 hrs by sulforhodamine B assay relative to control
A549 = test: Cytotoxicity against human A549 cells assessed as cell viability at 10 uM incubated for 48 hrs by sulforhodamine B assay relative to control
SN12C = test: Cytotoxicity against human SN12C cells assessed as cell viability at 10 uM incubated for 48 hrs by sulforhodamine B assay relative to control
HCT-29 = test: Cytotoxicity against human […] cells assessed as cell viability at 10 uM incubated for 48 hrs by sulforhodamine B assay relative to control
OVCAR-8 = test: Cytotoxicity against human OVCAR-8 cells assessed as cell viability at 10 uM incubated for 48 hrs by sulforhodamine B assay relative to control
NCI-H226 = test: Cytotoxicity against human NCI-H226 cells assessed as cell viability at 10 uM incubated for 48 hrs by sulforhodamine B assay relative to control
NCI/ADR-RES = test: Cytotoxicity against human NCI/ADR-RES cells assessed as cell viability at 10 uM incubated for 48 hrs by sulforhodamine B assay relative to control
K562 = test: Cytotoxicity against human K562 cells assessed as cell viability at 10 uM incubated for 48 hrs by sulforhodamine B assay relative to control
PC-3 = test: Cytotoxicity against human PC-3 cells assessed as cell viability at 10 uM incubated for 48 hrs by sulforhodamine B assay relative to control
M14 = test: Cytotoxicity against human M14 cells assessed as cell viability at 10 uM incubated for 48 hrs by sulforhodamine B assay relative to control
HOP-62 = test: Cytotoxicity against human HOP-62 cells assessed as cell viability at 10 uM incubated for 48 hrs by sulforhodamine B assay relative to control
SR = test: Cytotoxicity against human SR cells assessed as cell viability at 10 uM incubated for 48 hrs by sulforhodamine B assay relative to control
LOX IMVI = test: Cytotoxicity against human LOX IMVI cells assessed as cell viability at 10 uM incubated for 48 hrs by sulforhodamine B assay relative to control
SF-268 = test: Cytotoxicity against human SF-268 cells assessed as cell viability at 10 uM incubated for 48 hrs by sulforhodamine B assay relative to control
OVCAR-4 = test: Cytotoxicity against human OVCAR-4 cells assessed as cell viability at 10 uM incubated for 48 hrs by sulforhodamine B assay relative to control
SNB-19 = test: Cytotoxicity against human SNB-19 cells assessed as cell viability at 10 uM incubated for 48 hrs by sulforhodamine B assay relative to control
MCF7 = test: Cytotoxicity against human MCF7 cells assessed as cell viability at 10 uM incubated for 48 hrs by sulforhodamine B assay relative to control
SNB-75 = test: Cytotoxicity against human SNB-75 cells assessed as cell viability at 10 uM incubated for 48 hrs by sulforhodamine B assay relative to control
NCI-H460 = test: Cytotoxicity against human NCI-H460 cells assessed as cell viability at 10 uM incubated for 48 hrs by sulforhodamine B assay relative to control

For `O=C(NCCCNc1nccc(-c2c(-c3cccc(F)c3)nc3sccn23)n1)c1ccc(C(F)(F)F)cc1`, the viability at 10 µM (CAKI-1) was 62.5%, the viability at 10 µM (SF-295) was 87.5% and the viability at 10 µM (TK-10) was 74%. It also gave a viability at 10 µM (DU-145) of 81.3%, a viability at 10 µM (CCRF-CEM) of 89.1% and a viability at 10 µM (HL-60(TB)) of 115%. For the same compound, the viability at 10 µM (MDA-MB-231) was 89.1%, the viability at 10 µM (786-0) was 58.9% and the viability at 10 µM (ACHN) was 64.5%. It also gave a viability at 10 µM (IGROV-1) of 41.8%, a viability at 10 µM (MDA-MB-435) of 68.7% and a viability at 10 µM (BT-549) of 83.4%. For the same compound, the viability at 10 µM (NCI-H23) was 95.5%, the viability at 10 µM (RPMI-8226) was 96.8% and the viability at 10 µM (OVCAR-3) was 82.3%. The viability at 10 µM (MDA-MB-468) was 76.6%, the viability at 10 µM (SK-MEL-28) was 96.2% and the viability at 10 µM (NCI-H322M) was 90.3%. It also gave a viability at 10 µM (HOP-92) of 93.6%, a viability at 10 µM (COLO 205) of 74.8% and a viability at 10 µM (KM12) of 85.4%. The viability at 10 µM (HCT-15) was 54.2%, the viability at 10 µM (SK-OV-3) was 69% and the viability at 10 µM (A549) was 69%. For the same compound, the viability at 10 µM (SN12C) was 80.1%, the viability at 10 µM (HCT-29) was 53.8% and the viability at 10 µM (OVCAR-8) was 73.9%. It also gave a viability at 10 µM (NCI-H226) of 78.8%, a viability at 10 µM (NCI/ADR-RES) of 74.7% and a viability at 10 µM (K562) of 66.7%. It also gave a viability at 10 µM (PC-3) of 70.8%, a viability at 10 µM (M14) of 82.8% and a viability at 10 µM (HOP-62) of 124%. For the same compound, the viability at 10 µM (SR) was 86.8%, the viability at 10 µM (LOX IMVI) was 82.6% and the viability at 10 µM (SF-268) was 67.8%. The viability at 10 µM (OVCAR-4) was 74.7%, the viability at 10 µM (SNB-19) was 87.6% and the viability at 10 µM (MCF7) was 69.7%. For the same compound, the viability at 10 µM (SNB-75) was 82.6% and the viability at 10 µM (NCI-H460) was 92.1%.

In the case of `O=C(NCCNc1nccc(-c2c(-c3cccc(F)c3)nc3sccn23)n1)C1CCCCC1`, the viability at 10 µM (CAKI-1) was 70.4%, the viability at 10 µM (SF-295) was 93.6% and the viability at 10 µM (TK-10) was 88.6%. The viability at 10 µM (DU-145) was 81.6%, the viability at 10 µM (CCRF-CEM) was 70% and the viability at 10 µM (HL-60(TB)) was 122%. The viability at 10 µM (MDA-MB-231) was 104%, the viability at 10 µM (786-0) was 69.1% and the viability at 10 µM (ACHN) was 67.1%. For the same compound, the viability at 10 µM (IGROV-1) was 45.1%, the viability at 10 µM (MDA-MB-435) was 65.5% and the viability at 10 µM (BT-549) was 93.9%. For the same compound, the viability at 10 µM (NCI-H23) was 97%, the viability at 10 µM (RPMI-8226) was 81.6% and the viability at 10 µM (OVCAR-3) was 76.3%. It also gave a viability at 10 µM (MDA-MB-468) of 59.5%, a viability at 10 µM (SK-MEL-28) of 106% and a viability at 10 µM (NCI-H322M) of 104%. The viability at 10 µM (HOP-92) was 135%, the viability at 10 µM (COLO 205) was 53.5% and the viability at 10 µM (KM12) was 81.6%. For the same compound, the viability at 10 µM (HCT-15) was 61%, the viability at 10 µM (SK-OV-3) was 50.1% and the viability at 10 µM (A549) was 78.8%. For the same compound, the viability at 10 µM (SN12C) was 67.5%, the viability at 10 µM (HCT-29) was 43.6% and the viability at 10 µM (OVCAR-8) was 56.9%. It also gave a viability at 10 µM (NCI-H226) of 60.9%, a viability at 10 µM (NCI/ADR-RES) of 66.9% and a viability at 10 µM (K562) of 74.2%. The viability at 10 µM (PC-3) was 75.2%, the viability at 10 µM (M14) was 73.6% and the viability at 10 µM (HOP-62) was 109%. For the same compound, the viability at 10 µM (SR) was 91%, the viability at 10 µM (LOX IMVI) was 65.9% and the viability at 10 µM (SF-268) was 77.3%. For the same compound, the viability at 10 µM (OVCAR-4) was 71.8%, the viability at 10 µM (SNB-19) was 96% and the viability at 10 µM (MCF7) was 82%. It also gave a viability at 10 µM (SNB-75) of 88.6% and a viability at 10 µM (NCI-H460) of 91.6%.
